One block for each compound: values may come before it. Residues, ends and D or L forms follow the SMILES beside them.
Target: T1, O‐Mad2^R133A (Homo sapiens, UniProt Q13257, R133A)
T1 construct: unable to collect equivalent data for full‐length O‐Mad2^R133A; His6-DoubleStrep-TEV (N); made in house
Test: Time-resolved NMR: O-Mad2 to C-Mad2 conversion of O-Mad2^R133A with MIM peptides
Format: biochemical
Conditions: 100 μM O-Mad2^R133A, 25°C
Experimental: FIGURE 2 NMR fingerprinting of Mad2. (a) Structural orientations of Trp75 (on the αB helix) and Trp167 (on the “safety‐belt”) in Mad2 produce distinct indole NH resonances. […] NMR spectra for O‐Mad2^R133A and “empty” C‐Mad2^L13A/R133A and C‐Mad2^R133A:Cdc20^MIM‐111‐138 are from Fischer et al. ([2022]) (c) Mad2 conversion rates vary with different MIM peptides. Conversion was traced over 24 h at 25°C using the Trp75 and Trp167 side‐chain resonances as reporters. MIM peptides were added at two‐fold molar excess to Mad2 (100 μM). Each spectrum required 12 min of acquisition time, therefore the 15 min time‐points represent the earliest spectra in the time‐resolved series. The schematics show the conformation of Mad2 as indicated by the tryptophan side‐chain resonances. A black tick marks when conversion is considered complete. NMR data for O‐Mad2^R133A with and without Cdc20^MIM‐111‐138 shown are from Fischer et al. ([2022]). In the case of full‐length Cdc20, the MIM sequence is sequestered by an auto‐inhibitory intramolecular interaction within Cdc20 itself, which prevents it from being readily accessible for binding to C‐Mad2 (Piano et al., [2021]). Conversely, isolated MIM peptides lack this auto‐inhibitory mechanism, allowing them to bind directly to C‐Mad2 without obstruction.
To understand whether Mad2 conversion times are modulated by different C‐Mad2 ligands, we used time‐resolved NMR to determine the conversion time of 100 μM O‐Mad2^R133A at 25°C. The indole NH resonances of Trp75 and Trp167 were used as reporters (Figure 2b). […] In contrast, conversion took ~24 h in the absence of Cdc20^MIM‐111‐138 peptide (Fischer et al., [2022]) (Figures 2c and S4b). […] Other MIM peptides also accelerated the O‐Mad2 to C‐Mad2 conversion. […] In “empty” C‐Mad2, the β7/β8 hairpin is displaced to expose the β6 strand for pairing with the MIM peptide (Luo et al., [2004]) (Figure S3a).
Mad2 constructs were expressed in BL21 Star (DE3) cells (Thermo Fisher Scientific), co‐transformed with a pRARE plasmid (Merck). Uniformly labeled proteins were expressed in M9 minimal media (6 g/L Na2HPO4, 3 g/L KH2PO4, 0.5 g/L NaCl) supplemented with 1.7 g/L yeast nitrogen base without NH4Cl and amino acids (Sigma Y1251). 1 g/L ^15NH4Cl and 4 g/L glucose were supplemented for ^15N labeling. For ^13C/^15N double‐labeled samples, unlabeled glucose was replaced with 3 g/L ^13C‐glucose. Protein expression was induced with 0.4 mM IPTG at 16°C overnight. All samples were purified as previously described (Luo & Yu, [2005]; Mapelli et al., [2007]) and all O‐Mad2 variants were kept at 4°C during purification to prevent conversion to C‐Mad2. Prior to all NMR experiments, proteins were dialyzed into 20 mM HEPES, pH 7.0, 100 mM NaCl, 1 mM TCEP. ^13C/^15N‐labeled samples were used for backbone assignment, and all other experimental data were acquired on ^15N‐labeled samples. Proteins were kept on ice before NMR experiments to ensure all O‐Mad2 remained in the open state. For “bound” C‐Mad2, MIM peptides were added in 1:2 molar excess to ensure complete conversion.
All peptides were synthesized by Cambridge Research Biochemicals, UK. Peptides were dialyzed into 20 mM HEPES, pH 7.0, 100 mM NaCl, and 1 mM TCEP for NMR experiments. The sequences for the peptides used in this study are: Cdc20^MIM‐111‐138 ([…]), Cdc20^MIM‐123‐137 (FDVEEAKILRLSGKP), Cdc20^MIM‐123‐152 ([…]), Cdc20^MIM‐138‐152 (QNAPEGYQNRLKVLY), Mad1^MIM‐529‐550 ([…]), and MBP1^MIM (SWYSYPPPQRAV). […]

T1 sequence (Q13257 whole entry R133A): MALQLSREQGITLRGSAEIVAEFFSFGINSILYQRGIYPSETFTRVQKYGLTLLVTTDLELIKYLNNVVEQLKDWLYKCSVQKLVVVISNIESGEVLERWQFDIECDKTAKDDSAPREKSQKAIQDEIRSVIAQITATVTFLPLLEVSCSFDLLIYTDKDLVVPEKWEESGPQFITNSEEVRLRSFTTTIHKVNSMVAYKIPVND

Compound: CC[C@H](C)[C@H](NC(=O)[C@H](CCCCN)NC(=O)[C@H](C)NC(=O)[C@H](CCC(=O)O)NC(=O)[C@H](CCC(=O)O)NC(=O)[C@@H](NC(=O)[C@H](CC(=O)O)NC(=O)[C@@H](N)Cc1ccccc1)C(C)C)C(=O)N[C@@H](CC(C)C)C(=O)N[C@@H](CCCNC(=N)N)C(=O)N[C@@H](CC(C)C)C(=O)N[C@@H](CO)C(=O)NCC(=O)N[C@@H](CCCCN)C(=O)N1CCC[C@H]1C(=O)N[C@@H](CCC(N)=O)C(=O)N[C@@H](CC(N)=O)C(=O)N[C@@H](C)C(=O)N1CCC[C@H]1C(=O)N[C@@H](CCC(=O)O)C(=O)NCC(=O)N[C@@H](Cc1ccc(O)cc1)C(=O)N[C@@H](CCC(N)=O)C(=O)N[C@@H](CC(N)=O)C(=O)N[C@@H](CCCNC(=N)N)C(=O)N[C@@H](CC(C)C)C(=O)N[C@@H](CCCCN)C(=O)N[C@H](C(=O)N[C@@H](CC(C)C)C(=O)N[C@@H](Cc1ccc(O)cc1)C(=O)O)C(C)C [Cdc20^MIM‐123‐152] (H-FDVEEAKILRLSGKPQNAPEGYQNRLKVLY-OH; N-terminus and C-terminus assumed)
- Mad2 conversion rate/efficiency, in words (time-resolved NMR, compared with other Cdc20^MIM peptides): more efficient at triggering Mad2 conversion

- acceleration of O-Mad2 to C-Mad2 conversion vs absence of MIM peptide (two-fold molar excess peptide, without peptide ~24 h): ~50 fold
Compound: EHQKAWALNLNGFDVEEAKILRLSGKPQ [Cdc20^MIM‐111‐138, Cdc20^MIM peptide spanning Cdc20 residues 111–138]

Compound: QNAPEGYQNRLKVLY [Cdc20^MIM‐138‐152, peptide of Cdc20 residues 138–152]
- induction of Mad2 conversion after two hours / binding, in words (time-resolved NMR, two hours): failed to induce Mad2 conversion after two hours, and therefore alone are insufficient to bind Mad2

Source: paper PMC11947619, “Molecular mechanism of Mad2 conformational conversion promoted by the Mad2‐interaction motif of Cdc20” (Protein Science : A Publication of the Protein Society, 2025)
